Assay results taken from patent US12552783B2, “Modulators of proteolysis and associated methods of use” (Arvinas Operations, Inc., priority 2018, dated 2026).

Target: KRas (Homo sapiens, UniProt P01116, G12C)
Assay: KRas degradation in NCI-H2030 cells by Western blot, normalized to GAPDH (data of Table 14)
Assay type: cell-based
Design: host or cells: NCI-H2030
Conditions: for Dmax: NCI-H2030
Protocol: Cell Lines, Antibodies, and Reagents. NCI-H2030 (CRL-5914) and SW1573 (CRL-2170) cells were purchased from ATCC. Both cell lines are homozygous for the G12C mutation in KRas. NCI-H2030 cells were cultured in RPMI-1640 medium containing 1% penicillin-streptomycin and 10% fetal bovine serum (FBS). SW1573 cells were cultured in DMEM containing 1% penicillin-streptomycin and 10% FBS. The KRas detection antibody (Cat. No. LS-C175665) was purchased from LifeSpan Biosciences and was used at a dilution of 1:2000. GAPDH was detected using an antibody purchased from Cell Signaling Technology (Cat. No. 5174) and was diluted 1:3000. Secondary anti-mouse and anti-rabbit detection antibodies were purchased from Cell Signaling Technology (Cat. Nos. 7076 and 7074, respectively).
Compound Treatment and Western Blotting of the Data of Table 14. Either NCI-H2030 or SW1573 cells were plated in 12-well plates and allowed to adhere overnight at 37° C. in an incubator containing 5% CO2. The following day, the medium was replaced with the appropriate medium lacking FBS to induce starvation. Cells were returned to the incubator for an additional 24 hours following media exchange. […] Cells were treated with VHL-based compounds for 24 hours and all other compounds for 72 hours. Following treatment, cells were lysed in RIPA buffer (Thermo Fisher Cat. No. 89900) containing phosphatase (Thermo Fisher Cat. No. 1861277) and protease (Thermo Fisher Cat. No. 78429) inhibitor cocktails. Lysates were cleared at 13,000 rpm for 15 minutes and supernatants were assayed for total protein concentration using the Pierce BCA assay system (Thermo Fisher Cat. No. 23225). For each sample, 10 μg total protein was resolved on a 12% Bis-Tris gel and then transferred to a nitrocellulose membrane. After blocking in 3% BSA in TBST (Tris-buffered Saline with 0.1% Tween-20) for 1 hour at room temperature, membranes were probed with the primary antibody (LS Bio Cat. No. LS-C175665) overnight at 4° C. After incubation with the secondary antibody, the following day membranes were visualized using the SuperSignal™ West Femto substrate (Thermo Fisher Cat. No. 34095). The KRas signal in each lane was normalized to GAPDH and percent degradation was either estimated as less than 25% by visual inspection (C in Table 13) or quantitated relative to the DMSO control lane using BIO-RAD Image Lab 5.2.1, and all data was plotted using GraphPad PRISM 6.07.
DC50 is the half-maximal degradation concentration—i.e., the concentration at which 50% degradation is observed. DMax is the maximum degradation efficacy is achieved—i.e., the maximal degradation observed) degradation data.

| Structure (SMILES) | Percent Degradation at Indicated Concentration (μM): 0.3 (H2030 cells, 0.3 μM) | Percent Degradation at Indicated Concentration (μM): 1 (H2030 cells, 1 μM) | Percent Degradation at Indicated Concentration (μM): 3 (H2030 cells, 3 μM) | Dmax (H2030 cells) | Percent Degradation at Indicated Concentration (μM) (H2030, 0.3 μM) | Percent Degradation at Indicated Concentration (μM) (H2030, 1 μM) | Percent Degradation at Indicated Concentration (μM) (H2030, 3 μM) | Dmax | Percent Degradation at Indicated Concentration (μM) (H2030 cells, 0.3 μM) | Percent Degradation at Indicated Concentration (μM) (H2030 cells, 1 μM) | Percent Degradation at Indicated Concentration (μM) (H2030 cells, 3 μM) |
| --- | --- | --- | --- | --- | --- | --- | --- | --- | --- | --- | --- |
| C=CC(=O)N1CCN(c2nc(NCCC(=O)N(C)CCOCCOCCOCCOCCOCC(=O)N[C@H](C(=O)N3C[C@H](O)C[C@H]3C(=O)N[C@@H](C)c3ccc(-c4scnc4C)cc3)C(C)(C)C)nc3c(F)c(-c4cc(O)cc5ccccc45)c(Cl)cc23)CC1 [compound 197, (2S,4R)-1-((2S)-24-((4-(4-acryloylpiperazin-1-yl)-6-chloro-8-fluoro-7-(3-hydroxynaphthalen-1-yl)quinazolin-2-yl)amino)-2-(tert-butyl)-21-methyl-4,22-dioxo-6,9,12,15,18-pentaoxa-3,21-diazatetracosanoyl)-4-hydroxy-N-((S)-1-(4-(4-methylthiazol-5-yl)phenyl)ethyl)pyrrolidine-2-carboxamide] | C (C ≤ 35) | C (C ≤ 35) | C (C ≤ 35) | ≤ 35% | – | – | – | – | – | – | – |
| C=CC(=O)N1CCN(c2nc(NCCC(=O)N(C)CCOCCOCCOc3cc(-c4scnc4C)ccc3CNC(=O)[C@@H]3C[C@@H](O)CN3C(=O)[C@H](c3cc(C)no3)C(C)C)nc3c(F)c(-c4cc(O)cc5ccccc45)c(Cl)cc23)CC1 [compound 342, (2S,4R)-N-(2-(2-(2-(2-(3-((4-(4-acryloylpiperazin-1-yl)-6-chloro-8-fluoro-7-(3-hydroxynaphthalen-1-yl)quinazolin-2-yl)amino)-N-methylpropanamido)ethoxy)ethoxy)ethoxy)-4-(4-methylthiazol-5-yl)benzyl)-4-hydroxy-1-((S)-3-methyl-2-(3-methylisoxazol-5-yl)butanoyl)pyrrolidine-2-carboxamide] | – | – | – | – | C (Percent Degradation: C ≤ 35) | C (Percent Degradation: C ≤ 35) | C (Percent Degradation: C ≤ 35) | ≤ 35% | – | – | – |
| C=CC(=O)N1CCN(c2nc(NCCC(=O)N(C)CCOCCNC(=O)c3ccc(NC(=O)[C@@H]4N[C@@H](CC(C)(C)C)[C@](C#N)(c5ccc(Cl)cc5F)[C@H]4c4cccc(Cl)c4F)c(OC)c3)nc3c(F)c(-c4c(O)cccc4F)c(Cl)cc23)CC1 (atropisomer, axis not shown) [compound 307, (2R,3S,4R,5S)-N-(4-((2-(2-(3-((4-(4-acryloylpiperazin-1-yl)-6-chloro-8-fluoro-7-((S)-2-fluoro-6-hydroxyphenyl)quinazolin-2-yl)amino)-N-methylpropanamido)ethoxy)eth-yl)carbamoyl)-2-methoxyphenyl)-3-(3-chloro-2-fluorophenyl)-4-(4-chloro-2-fluorophenyl)-4-cyano-5-neopentylpyrrolidine-2-carboxamide] | – | – | – | – | C (Percent Degradation: C ≤ 35) | C (Percent Degradation: C ≤ 35) | C (Percent Degradation: C ≤ 35) | ≤ 35% | – | – | – |
| CCC(=O)N1CCN(c2nc(NCCC(=O)N(C)CCOCCOc3ccc4c(c3)CN(C3CCC(=O)NC3=O)C4=O)nc3c(F)c(-c4cc(O)cc5ccccc45)c(Cl)cc23)CC1 (stereo not shown) [compound 51, 3-((6-chloro-8-fluoro-7-(3-hydroxynaphthalen-1-yl)-4-(4-propionylpiperazin-1-yl)quinazolin-2-yl)amino)-N-(2-(2-((2-(2,6-dioxopiperidin-3-yl)-1-oxoisoindolin-5-yl)oxy)ethoxy)ethyl)-N-methylpropanamide] | C (C ≤ 35) | C (C ≤ 35) | C (C ≤ 35) | ≤ 35% | – | – | – | – | – | – | – |
| C=CC(=O)N1CCN(c2nc(NCCC(=O)N(C)CCOCCOc3cc(-c4scnc4C)ccc3CNC(=O)[C@@H]3C[C@@H](O)CN3C(=O)[C@H](c3cc(C)no3)C(C)C)nc3c(F)c(-c4cc(O)cc5ccccc45)c(Cl)cc23)CC1 [compound 340, (2S,4R)-N-(2-(2-(2-(3-((4-(4-acryloylpiperazin-1-yl)-6-chloro-8-fluoro-7-(3-hydroxynaphthalen-1-yl)quinazolin-2-yl)amino)-N-methylpropanamido)ethoxy)ethoxy)-4-(4-methylthiazol-5-yl)benzyl)-4-hydroxy-1-((S)-3-methyl-2-(3-methylisoxazol-5-yl)butanoyl)pyrrolidine-2-carboxamide] | C (C ≤ 35) | C (C ≤ 35) | C (C ≤ 35) | ≤ 35% | – | – | – | – | – | – | – |
| C=CC(=O)N1CCN(c2nc(OCCCN(C)CCOCCOCCOCCOCC(=O)N[C@H](C(=O)N3C[C@H](O)C[C@H]3C(=O)N[C@@H](C)c3ccc(-c4scnc4C)cc3)C(C)(C)C)nc3c(F)c(-c4cc(O)cc5ccccc45)c(Cl)cc23)CC1 [compound 497, (2S,4R)-1-((2S)-21-((4-(4-acryloylpiperazin-1-yl)-6-chloro-8-fluoro-7-(3-hydroxynaphthalen-1-yl)quinazolin-2-yl)oxy)-2-(tert-butyl)-18-methyl-4-oxo-6,9,12,15-tetraoxa-3,18-diazahenicosanoyl)-4-hydroxy-N-((S)-1-(4-(4-methylthiazol-5-yl)phenyl)ethyl)pyrrolidine-2 carboxamide] | – | – | – | – | C (Percent Degradation: C ≤ 35) | C (Percent Degradation: C ≤ 35) | C (Percent Degradation: C ≤ 35) | ≤ 35% | – | – | – |
| CN(CCOCCOCCOCCNc1cccc2c1C(=O)N(C1CCC(=O)NC1=O)C2=O)C(=O)CCNc1nc(N2CCN(C(N)=O)CC2)c2cc(Cl)c(-c3c(O)cccc3F)c(F)c2n1 [compound 146, 4-((7S)-6-chloro-2-((1-((2-(2,6-dioxopiperidin-3-yl)-1,3-dioxoisoindolin-4-yl)amino)-12-methyl-13-oxo-3,6,9-trioxa-12-azapentadecan-15-yl)amino)-8-fluoro-7-(2-fluoro-6-hydroxyphenyl)quinazolin-4-yl)piperazine-1-carboxamide] | – | – | – | – | C (Percent Degradation: C ≤ 35) | C (Percent Degradation: C ≤ 35) | C (Percent Degradation: C ≤ 35) | ≤ 35% | – | – | – |
| C=CC(=O)N1CCN(c2nc(O[C@H](C)CN3CCC(OCCOCCOc4ccc5c(c4)CN(C4CCC(=O)NC4=O)C5=O)CC3)nc3c2CCN(c2cc(O)cc4ccccc24)C3)CC1 (stereo partly drawn) [compound 422, 3-(5-(2-(2-((1-((R)-2-((4-(4-acryloylpiperazin-1-yl)-7-(3-hydroxynaphthalen-1-yl)-5,6,7 ,8-tetrahydropyrido[3,4-d]pyrimidin-2-yl)oxy)propyl)piperidin-4-yl)oxy)ethoxy)ethoxy)-1-oxoisoindolin-2-yl)piperidine-2,6-dione] | – | – | – | – | – | – | – | – | C (Percent Degradation: C ≤ 35) | C (Percent Degradation: C ≤ 35) | C (Percent Degradation: C ≤ 35) |
